Measured values taken from patent US11952431B2, “Neutrophil-binding peptides” (YISSUM RESEARCH DEVELOPMENT COMPANY OF THE HEBREW …, priority 2020, dated 2024).
“Also recorded” adds a separate entry of the source. Blank lines part the entries; values can stand above or below the molecule they belong to.

What was measured:
neutrophils [1] = experiment: LQI tetramer alone or 16-LQI binding to WBCs, flow cytometry; parameters: species or system mouse; details: WBCs from 4T1-tumor bearing mice, 30 min at 4° C.
Description: (§1) After washing, the cells were stained with 50 μl 3.3 μg/ml of Streptavidin-Cy3 (SA-Cy3).
(§2) “Tetramer-Streptavidin Complex”:1 μl of the 309 μM stock solution of the tetrameric peptide was preincubated with 300 μl of 3.3 μg/ml SA-Cy3 for 30 min at RT. 100 μl of LQI tetramer-SA-Cy3 mix was then used to stain 0.5×10^6 cells.
(§3) The cells were washed and analyzed by flow cytometry.

other WBC = experiment: as above; parameters: species or system mouse; details: WBCs from 4T1-tumor bearing mice, 30 min at 4° C.
Description: as §1, §2, §3

[2] = system: murine neutrophils (HDNs from 4T1-tumor bearing mice); experiment: Titration of binding to purified HDNs, flow cytometry; parameters: species or system mouse
Description: Analysis was performed by flow cytometry.

neutrophils [3] = experiment: Doublet analysis of flow cytometry data for crosslinking of neutrophils; assay type: cell-based, mouse
Description: In order to rule out that there is a crosslinking between neutrophils when incubating with the LQI tetramer-SA-complex, flow cytometry data was analyzed to assess if there was an increase in doublet cells after incubation with the LQI tetramer-SA-complex. It is possible to examine the light scatter plots and compare the height signal of a voltage pulse (SSC-H, FSC-H) to the area values (SSC-A, FSC-A; A=Height*Width). If a doublet passes the laser beam in the flow cytometer, the width of the pulse signal (corresponds to time) will increase and therefore the value for the area (SSC-A and FSC-A) will increase. By comparing e.g. SSC-H and SSC-A it is possible to identify doublets because they are outliers in the blot.

circulating neutrophils = experiment: Ex vivo binding to circulating neutrophils of healthy and tumor bearing mice; parameters: species or system mouse
Description: 0.5×10^6 purified HDNs were stained in 100 μl of preincubated 3.3 μg/ml 16-LQI-Cy3 solution for 30 min at 4° C. […] After staining, cells were washed and analyzed by flow cytometry.

neutrophils [4] = experiment: Confocal imaging of 16-LQI with Gr-1 neutrophils; assay type: cell-based, mouse
Description: FIGS. 2A-I: (2A) Schematic representation of the structure of a tetrameric LQI. […] (2E) Representative histogram showing the percent binding of 16-LQI to each WBC population in healthy Balb/C mice following ex vivo incubation and staining with Streptavidin-Cy3, as analyzed by flow cytometry. *=gating based on light scatter. […] Ly6G^+ population represent HDN and Ly6G− cells are other WBCs. […] (2I) Representative image of confocal microscopy with Gr-1 neutrophils (green) bound by the 16-LQI (red).

[5] = system: circulating CD177+ cells (neutrophils); experiment: Flow cytometry of WBC stained for CD177 and 16-LQI; assay type: binding, mouse
Source text: (§4) (21C-D) Representative dot plots of isolated WBC stained with (21C) Ly6G and CD177 or (21D) CD177 and 16-LQI. […] (21F) Representative STORM imaging of a single neutrophil with staining of CD177 (green) and 16-LQI (red), overlay with brightfield (left) or DAPI staining of nucleus (right). (21G) Quantification of CD177 and 16-LQI interaction for image depicted in (E) using the ImageJ Interaction Factor plugin.

CD177 [6] = target: T1, CD177 (Mus musculus, UniProt Q8R2S8); experiment: STORM imaging of CD177 and 16-LQI on a neutrophil; assay type: binding; parameters: endogenous in cells; host or cells: murine neutrophils
T1 sequence (Q8R2S8 22-817): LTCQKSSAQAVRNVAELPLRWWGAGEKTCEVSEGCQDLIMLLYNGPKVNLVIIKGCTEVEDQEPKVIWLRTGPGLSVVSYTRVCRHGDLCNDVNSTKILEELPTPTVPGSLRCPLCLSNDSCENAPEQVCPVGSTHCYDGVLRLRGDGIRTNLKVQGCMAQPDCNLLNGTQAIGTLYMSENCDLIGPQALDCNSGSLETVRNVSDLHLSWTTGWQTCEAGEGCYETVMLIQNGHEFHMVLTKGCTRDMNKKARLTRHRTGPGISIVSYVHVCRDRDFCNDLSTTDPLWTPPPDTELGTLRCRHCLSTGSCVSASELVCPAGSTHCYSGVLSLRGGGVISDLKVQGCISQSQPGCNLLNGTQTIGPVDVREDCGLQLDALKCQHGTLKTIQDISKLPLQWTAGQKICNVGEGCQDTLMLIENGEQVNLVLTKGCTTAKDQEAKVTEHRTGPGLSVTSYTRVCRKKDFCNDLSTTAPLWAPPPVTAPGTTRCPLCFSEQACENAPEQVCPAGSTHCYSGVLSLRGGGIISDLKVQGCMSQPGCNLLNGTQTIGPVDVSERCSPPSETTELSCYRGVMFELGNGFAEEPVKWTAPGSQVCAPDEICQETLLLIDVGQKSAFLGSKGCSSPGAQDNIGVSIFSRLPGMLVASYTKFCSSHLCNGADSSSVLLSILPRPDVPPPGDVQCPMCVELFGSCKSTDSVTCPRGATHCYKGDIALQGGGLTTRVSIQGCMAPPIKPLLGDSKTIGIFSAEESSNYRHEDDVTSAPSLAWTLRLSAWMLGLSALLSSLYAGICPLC
Source text: as §4

[7] = system: PMA stimulated ROS production in neutrophils; experiment: PMA induced ROS production after pretreatment with DPI or loaded nanoparticles; assay type: cell-based; details: pretreated 3 hrs with 10 ul NP or 1 uM free DPI, then 50 nM PMA
Description: PLGA NPs are known to gradually degrade within the cell, releasing any encapsulated payload. Therefore, whether neutrophil degranulation ROS production could be modulated by encapsulating small molecule inhibitors within neutrophil specific NPs (NSNPs) was tested. […] DPI was loaded in the LQI-coated nanoparticles using a single emulsion encapsulation process. Then, neutrophils were pretreated for 3 hrs with 10 ul empty NP (Empty NP), 10 ul DPI-loaded NP (NP+DPI) or 1 uM free DPI. After one wash, neutrophils were stimulated with 50 nM PMA to induce ROS production. Positive control for PMA induction were neutrophils pretreated with vehicle (empty NP). Negative control (Cont.) were untreated neutrophils.

[8] = system: tumor-associated neutrophils (TANs); details: TANs from 4T1 tumors, 30 min at 4° C.
Source text: After staining, cells were washed and analyzed by flow cytometry.

[9] = system: neutrophils (HDNs) from 4T1 tumor bearing Balb/C mice
Description: 800 μl of 2% FCS/RPMI medium were placed into the 24-well plate, then Millicell® cell culture inserts with a pore size of […] were placed into the wells and allowed to soak for 5 min. HDNs were suspended to a density of 250,000 cells/ml in 2% FCS/RPMI and 200 μl of the cell suspension were placed into the upper chamber of the transwell insert. Migration was stimulated by addition of […] CXCL2 to the bottom chamber of the wells (consider V=800 μl), and peptide was added to HDN in the upper chamber in two different concentrations (3.09 μM or 309 nM considering […]). Assay was stopped after 1.5 hr and inserts were removed with a forceps. Each condition was tested in triplicate. 5 pictures were taken per well at the same coordinates (middle, top, bottom, left, right). Cells per field of view were counted using ImageJ.
The purified HDNs were placed in the upper chamber of a transwell (pore size 5 μm) in 2% FCS/RPMI medium. The lower chamber contained either only 2% FCS/RPMI medium or the chemokine CXCL2 to induce neutrophil migration. […] The assay was stopped after 1.5 h incubation, five pictures of each well were taken, counted and averaged. The experiment was done in triplicates.

[10] = system: 4T1 cancer cells co-cultured with HDNs
Description: In vitro luciferase assay to monitor the anti-tumor activity of isolated neutrophils (‘Killing Assay’): 5,000 luciferase-labeled 4T1 breast carcinoma cells were seeded in 100 μl OptiMem medium containing 2% heat-inactivated FCS in each well of a white 96-flat-bottom well plate. 24 hours after seeding the tumor cells, 1×10^5 HDNs purified from the circulation of 4T1-tumor-bearing mice were added in 50 μl OptiMem with 2% FCS. The co-culture was incubated overnight. Control wells were incubated in 50 μl medium without neutrophils. Multiple repeats (12 wells) were done of each experimental setting. The supernatant was aspirated and 50 μl of cell culture lysis buffer were added (Promega). The plate was incubated for 15 min on an orbital shaker and then read in the plate-reader. Well-wise 50 μl of in-house prepared luciferase assay solution was injected during the measurement, and chemiluminescence was read for 10 sec per well. % tumor lysis was calculated by the following formula: % tumor lysis=(1−[luminescence of samples with neutrophils]/[luminescence of samples in medium])×100%.
In more details, 5.000 luciferase-labeled 4T1 breast carcinoma cells were cultured for 18 hours. […] The next day, luciferin dependent chemiluminescence was measured and the percentage of killing was calculated compared to control wells that were not cultured with HDNs. […]

CD177 [11] = target: T1, CD177; details: neutrophil lysate 3 h, mass spectrometry
Description: After washing, the bound proteins were eluted by incubating the beads for 10 min at 95° C. in protein sample buffer containing beta-mercaptoethanol. The gel was stained using silver staining. Lanes of the eluates of peptide- and control-beads were cut out and analyzed by mass spectrometry.

murine neutrophils = experiment: Phage-display screening of a peptide library on murine neutrophils; assay type: binding, mouse; details: prevalence in the final eluate, average of 5 replicates
Description: A phage-display screening of a peptide library was conducted, in a similar way to a screen conducted by Mazzucchelli et al. (Blood, 1999, 93(5), 1738-1748). In the present screen, a library of pages displaying 10^12 different peptides on their VIII protein was used to identify peptides that bind to murine neutrophils. The peptides in the library were random sequences of 6-12 amino acids in linear or cyclic form (Ryvkin et al., 2018, Nucleic Acids Research, 2018, Vol. 46, No. 9 e52). The screen was conducted using murine Normal-Density Neutrophils (NDN) for positive selection, whereas monocytes and lymphocytes served for negative selection. Following 3 rounds of positive panning and 2 interlaced rounds of negative panning, the neutrophil affinity selected phages were eluted and sequenced (FIG. 11). The top-ranking enriched peptide sequences and their prevalence in the final eluate (average of 5 replicates) are presented in Table 3.

monocytes or lymphocytes = experiment: Binding of peptide-presenting phage to WBC of 4T1 tumor bearing mice (anti-M13 PE, flow cytometry); parameters: species or system mouse; details: phage presenting the peptide
Description: (§5) FIGS. 1A-D: Validation of Phage Binding of Highest-Ranking Peptides Sequences Selected on Mouse Neutrophils. […] (SEQ ID NO: 9) peptide to neutrophils (Ly6G+CD11b+, red histogram) and other WBC (Ly6G−CD11b−, blue histogram) was evaluated using anti-M13 PE-labelled antibody and (1A) flow cytometry analysis or (1B) microscopy. (1C) Overview of LQI peptide constructs—the LQI peptide sequence on the phage is inserted within the protein VIII coat protein of the phage (LQI peptide in orange) and neighboring amino acid residues are depicted (recombinant LQI pVIII). An unlabeled, Cy5-labeled, biotin-labeled and the LQI peptide construct including neighboring amino acids from coat protein VIII as well as a glycine linker and fluorescein, were generated and tested for binding. (1D) Competition assay of LQI phage binding and LQI peptide constructs. Neutrophils were incubated with the LQI-presenting phage (black line) alone or with the LQI-presenting phage and different LQI peptide constructs at the same time (blue line). Phage binding to neutrophils was quantified using anti-M13-PE antibody (only M13-PE=dotted line).
(§6) The peptide having the best binding obtained in the screening was the peptide LQI, consisting of the amino acid sequence […] (SEQ ID NO: 9).

[12] = system: neutrophils (Ly6G+CD11b+); experiment: as above; parameters: species or system mouse; details: phage presenting the peptide
Description: as §5, §6

[13] = system: murine neutrophils (HDNs from 4T1 tumor bearing Balb/C mice); experiment: Competition assay of LQI phage binding with synthetic LQI peptide constructs; parameters: species or system mouse; details: peptide 20 min, then 10^10 LQI phages; M13-PE flow cytometry
Description: Several LQI monomeric peptide conjugates were synthesized by tagging the N-terminus of LQI peptide with Cy5, biotin or fluorescein (FIG. 1C). Competition assays were then performed in order to evaluate the binding of LQI and its conjugates to murine neutrophils. For the competition assays, 1×10^6 density-gradient purified HDNs from 4T1 tumor bearing Balb/C mice were incubated first with each of the synthetic peptides for 20 min, and later incubated with 10^10 phages presenting the LQI peptide on their surface. Phage binding was detected by flow cytometry with a M13-PE antibody.

murine CD177 = target: T2, murine CD177 (Mus musculus, UniProt Q8R2S8); experiment: Binding to HEK293T cells ectopically expressing CD177; details: control versus CD177-overexpressing cells
T2 construct: expressed in transfected cells; host or cells: HEK293T
T2 sequence (Q8R2S8 22-817): T1 sequence (Q8R2S8 22-817)

Molecule: 16-LQI: LQI tetramer-streptavidin (SA) complex, a 16-mer of the LQI-peptide [Peptide 16-LQI]
binding of neutrophils (neutrophils [1]): 100% | binding to other WBC (other WBC): ~10% | affinity for neutrophils relative to LQI-tetramer alone [2]: more than 75 times | percentage of doublets versus cells stained with only SA-Cy3 (neutrophils [3]): Differences were not detected | specificity to circulating neutrophils (Ly6G+ cells) (circulating neutrophils; mice bearing 4T1 tumors): strong specificity | binding to circulating neutrophils (circulating neutrophils; neutrophils isolated from healthy mice, ex vivo): 87% | uptake seen by confocal imaging (neutrophils [4]): engulfed specifically by neutrophils | binding to circulating CD177+ cells [5]: all circulating CD177+ cells (neutrophils) bind | clusters in which CD177 and 16-LQI signals overlap (CD177 [6]): > 90%

Molecule: c1ccc2c(c1)[I+]c1ccccc1-2 [DPI, diphenyleneiodonium chloride]
effect on PMA stimulated ROS production [7]: efficiently blocked; also recorded: completely blocked ROS production

Molecule: (LQIQSWSSSP (SEQ ID NO: 9) Doa-Doa-C)4-(Mpa)-4-Lys2-Lys-beta-Ala-Lys(Biotin)-beta-Ala-OH [LQI tetramer]
binding of neutrophils (neutrophils [1]): ~100% | binding to other WBC (other WBC): ~50% | Kd ([2]; purified HDNs, flow cytometry): 3.3 µM | binding to the different types of neutrophils (circulating neutrophils; summary FIG. 2H): very high efficiency | binding efficiency to TANs [8]: 98% | effect on neutrophil migration ([9]; 3.09 μM and 309 nM in upper chamber, CXCL2 in lower chamber, 1.5 h): no significant effect on neutrophil migration | chemoattractant activity ([9]; migration towards media containing LQI-tetramer): does not itself act as a chemoattractant | effect on the ability of HDNs to kill cancer cells [10]: does not affect the ability of HDNs to kill cancer cells | peptide/control ratio of CD177 in pulldown (CD177 [11]): 7.89

binding of phage to monocytes or lymphocytes (monocytes or lymphocytes): no detectable binding
Molecule: LQIQSWSSSP
Prevalence (%) (murine neutrophils): 28.4% | binding of phage to neutrophils [12]: 95% | competition with LQI phage binding to neutrophils [13]: able to compete with the phage binding to neutrophils | binding to HEK293T cells (murine CD177): binds only to HEK293T cells ectopically expressing the murine CD177

Molecule: LSIVSGSALNHL
Prevalence (%) (murine neutrophils): 2.9%

Molecule: LTLVSERPMI
Prevalence (%) (murine neutrophils): 1.5%

Molecule: STMTILGTGS
Prevalence (%) (murine neutrophils): 10.4%

Molecule: TETSLRIVSTNP
Prevalence (%) (murine neutrophils): 4.1%
